Experimental data as given in patent publication US4665064A, “Pharmaceutical compositions and methods for increasing zinc levels” (National Research Development Corporation, priority 1983, dated 1987).
Like-named read-outs stand apart in the source and are kept apart here.

How the values were obtained:
physchem = format: physicochemical; settings: for Kpart compared with maltol (compound and its 2:1 zinc complex): in words
Protocol: A good indication of the physical properties of a ligand-providing compound and of an zinc complex in this respect is provided by the value of the partition coefficient (Kpart)obtained on partition between n-octanol and Tris hydrochloride (20 mM, pH 7.4; Tris representing 2-amino-2 hydroxymethylpropane 1,3-diol) at 20° C. and expressed as the ratio (concentration in organic phase)/(concentration in aqueous phase). Preferred complexes show a value of Kpart for each ligand-providing compound of above 0.02 or 0.05 but less than 3.0, especially of above 0.2 but less than 1.0, together with a value of Kpart for the 2:1 zinc(II) complex of above 0.02 but less than 6.0, especially of 0.05 or 0.1 to 1.0. The value of Kpart for maltol is 0.66 and for the neutral 2:1 maltol:zinc complex is 0.11 which values lie in the especially preferred ranges. It will be appreciated, however, that the wide range of ligands which may be present in zinc complexes according to the present invention allows the preparation of complexes having partition coefficients lying throughout the entire ranges given. Thus, for example, a 2:1 complex having a higher partition coefficient than 0.1 may be obtained by using maltol as one ligand and another compound as the second ligand. Alternatively, higher partition coefficients may be obtained, if desired, by the use of hydroxypyrone compounds containing additional and/or larger aliphatic hydrocarbon group substituents on the ring.
Partition data on zinc complexes and on ligand-providing compounds
The partition coefficient Kpart, being the ratio (concentration in n-octanol)/(concentration in aqueous phase) on partition between n-octanol and aqueous tris hydrochloride (20 mM, pH 7.4; Tris represents 2-amino-2-hydroxymethylpropane 1,3-diol), is measured at 20° C. for zinc complexes containing various ligands and for their corresponding ligand-providing compounds as listed in Table 1. In the case of certain of the complexes the partition coefficient for the 2:1 ligand:zinc(II) complex is also measured in the presence of various amounts of the metal-free ligand-providing compound in excess of a b 1:2 zinc(II):compound ratio.
In each case, the material is dissolved initially in the aqueous Tris hydrochloride at a concentration of 10^-4 M in relation to zinc. The zinc complexes radiolabelled with ^65 Zn are prepared in situ in the buffer by the addition of ^65 Zn labelled ZnCl2 to an appropriate amount of the metal-free ligand-providing compound and subsequent adjustment of the pH to 7.4 by the addition of Tris free base. Acid washed glassware is used throughout and, following mixing of 5 ml of the 10^-4 M aqueous solution with 5 ml of n-octanol for 1 minute, the aqueous n-octanol mixture is centrifuged at 1,000 g for 30 seconds. […]

apotransferrin = assay: Ability of zinc complexes to donate zinc to apotransferrin; format: biochemical; settings: apotransferrin 10^-4 M, ZnSO4 10^-4 M with 10 molar proportion of maltol, pH 7.4, 37° C., 10 minutes
Protocol: Apotransferrin (10^-4 M) and the ^65 Zn radiolabelled zinc complex of maltol (the complex being prepared in situ in the buffer using ^65 Zn radiolabelled ZnSO4 at a concentration of 10^-4 M and a 10 molar proportion of maltol) were incubated together in Tris hydrochloride (50 mM, buffered to pH 7.4) at 37° C. for 10 minutes when a 1 ml aliquot was removed from the medium and added to a PD10 column. 0.5 ml fractions were collected directly into scintillation vials for counting.

[1] = in words
inverted rat jejunal sac = format: in vitro ADME, rat (male Sprague Dawley); settings: 37° C., up to 1 hour, Krebs Ringer buffer
Text: In the case of the hydroxypyrone ligands it will be seen that the uptake again increases with the increase in the amount of free compound which is present as a result of an increase in the amount of the 2:1 complex which is present.

human erythrocytes = format: in vitro ADME; settings: not told
Protocol: The zinc complex was formed in situ in the buffered solution using ^65 Zn labelled ZnSO4 at a concentration of 0.25 mM together with maltol or ethylpyromeconic acid in a molar ratio of zinc:compound of 1:0, 1:2, 1:5, 1:10 or 1:20, i.e. the concentration of the ligand-providing compound being 0, 0.5, 1.25, 2.5 or 5 mM, respectively. The proportions of 1:2, 1:5, 1:10 and 1:20 provide an increasing amount of the neutral 2:1 zinc(II) complex together with varying amounts of the free compound as explained in Example 4, a small amount of Tris free base (to about 2 mM) being added to avoid an acid pH on reaction to form the complex.
It will be seen that the uptake increases with an increase in the amount of free compound present as the proportion of zinc present as the 2:1 ligand:zinc(II) complex is increased through the mass action effect.

[2] = recognised property; in words; cited from earlier work

## CCc1occc(=O)c1O [ethylpyromeconic acid, 2-ethyl-3-hydroxy-4-pyrone, reference compound]
physchem
  Kpart compared with maltol (compound and its 2:1 zinc complex): higher than those for maltol
physchem; n-octanol/tris buffer, pH 7.4
  logD: -0.125

## [Zn+2] [zinc]
Everted rat jejunum
  non-specific binding to the mucosal surface: rapidly removed from the incubation medium by binding to the mucosal surface
  permeation: little permeation occurs

## Cc1occc(=O)c1O.[Zn] [zinc maltol]
apotransferrin
  zinc removed from the zinc complex: over 95%
Everted rat jejunum
  inhibition of the uptake of zinc: no inhibition on the uptake of zinc
[1]
  lability: extremely labile

## Cc1occc(=O)c1O [maltol, 3-hydroxy-2-methyl-4-pyrone, reference compound]
physchem; free ligand-providing compound, n-octanol/Tris hydrochloride 20 mM pH 7.4, 20° C.
  Free compound Kpart: 0.66

## CCn1cccc(O)c1=O.[Zn] [zinc 1-ethyl-3-hydroxypyrid-2-one]
Inverted rat jejunal sac; Zinc:compound 1:2
  Uptake of zinc into serosal compartment of rat jejunal sac: 36.4 n. mole
Inverted rat jejunal sac; Zinc:compound 1:10
  Uptake of zinc into serosal compartment of rat jejunal sac: 24.2 n. mole

## CCc1occc(=O)c1[O-].CCc1occc(=O)c1[O-].[Zn+2] [zinc ethylpyromeconic acid]
physchem
  Kpart compared with maltol (compound and its 2:1 zinc complex): higher than those for maltol
Human erythrocytes
  uptake of the 2:1 complex in tests on the permeation of erythrocytes: greater uptake

## CC(=O)[O-].CC(=O)[O-].[Zn+2] [zinc acetate]
[2]
  emetic property: recognised emetics

## O=S(=O)([O-])[O-].[Zn+2] [zinc sulphate]
[2]
  emetic property: recognised emetics
